Tests used:
[1] = hygroscopicity and handling of the solid; assay type: physicochemical; settings: when concentrated and solidified / powder
Excerpt: On the other hand, the crystal of the compound A was a non-hygroscopic powder, which was easily handled.

[2] = stability of compound A in aqueous solution by pH (hydrolysis seen by HPLC); assay type: physicochemical
Excerpt: The difficult point when the crystal of the compound A is obtained by the present method is in removing citric acid from the aqueous solution containing the compound A and citric acid in an acidic condition. Since the compound A is unstable in a neutral to alkaline (pH of 5 or higher) aqueous solution, in order to suppress decomposition of the compound A, maintenance of an acidic condition is important. Therefore, the aqueous solution containing the compound A and citric acid and having a pH of 2.0 or lower to be used in the step (a) may be an aqueous solution whose pH is preferably 0.6 to 1.8 and most preferably 1.0 to 1.6. […]
The purified precipitate obtained at a pH of 3.6 by the above operation and the purified precipitate obtained at a pH of 6.0 thereby were each evaluated by qualitative analysis using HPLC (FIG. 5, FIG. 6). The each precipitate (about 10 mg) was dissolved in purified water (about 1 mL), diluted 40-fold with a 10 mM perchloric acid solution being a mobile phase of the qualitative analysis using HPLC, and analyzed (by being diluted with the 10 mM perchloric acid solution, which was an acidic solvent, the Ca salts of the compound A were converted to the compound A, thus the detection was made as the compound A.). […]

[3] = solubility in isopropanol-water mixed solvent; assay type: physicochemical; settings: mixed solvent of isopropanol and water, ratio of isopropanol 40% or higher
Description: A highly purified crystalline powder of the compound A was obtained by repeating three times the same operation as in the recrystallization described in the paragraph of Example 3. 100 mL of purified water (Japanese Pharmacopoeia purified water) was added to 10 g of the crystalline powder, which was then dissolved by heating the resultant in a water bath at 50° C. The resultant solution was filtered by using a membrane filter (Merck Millipore) of 0.22 μm in pore size, and the resultant filtrate was collected. The filtrate was concentrated by using an evaporator on a water bath at 40° C. to thereby collect the resultant as an about 50 ml of a solution. This solution was concentrated and […] to thereby become a solution in a supersaturated state. The solution as it was in the heated state (40° C.) was dispensed in test tubes with a lid so as to have solvent ratios indicated in the following Table (Table 4) to thereby produce solutions having mixed solvents. Specifically, by adding 100 μL of organic solvents of methanol, ethanol, acetone and the like to 400 μL of the supersaturated solution, there was made a solution having a water ratio in the mixed solvent of 80%. […]

[4] = tested on: liver disorder; settings: known active substance; cited from earlier work

| Structure (SMILES) | hygroscopicity [1] | hydrolysis of the imide structure ([2]; alkali added for the pH to be 6.0, 80% ethanol precipitation, HPLC) | stability in aqueous solution ([2]; neutral to alkaline (pH of 5 or higher) aqueous solution) | solubility [3] | inhibitory effect against liver disorder [4] |
| --- | --- | --- | --- | --- | --- |
| O=C(O)CC(C(=O)O)N1C(=O)C[C@@](O)(CC(=O)O)C1=O (stereo partly drawn) [crystal of the compound A] | non-hygroscopic |  |  |  |  |
| O=C(O)CC(C(=O)O)N1C(=O)CC(O)(CC(=O)O)C1=O (stereo not drawn) [compound A] |  | hydrolysis of the compound A progressed | unstable | decreased | inhibitory effect against liver disorder |
| O=C(O)C[C@@H](C(=O)O)N1C(=O)C[C@@](O)(CC(=O)O)C1=O [noncrystal of the compound A] | had hygroscopicity |  |  |  |  |

— US20200055821A1, “METHOD FOR MANUFACTURING DIASTEREOMER OF CITRIC ACID DERIVATIVE” (OTSUKA PHARMACEUTICAL FACTORY, INC., priority 2017, published 2020)
